Data on eleven compounds can be found in PubChem BioAssay (NCI).

Among the test systems are SF-539 CNS; SN12C renal; HOP-92 NSCLC; MALME-3M melanoma; OVCAR-3 ovarian; HCT-116 colon; OVCAR-5 ovarian; CCRF-CEM leukemia; SR leukemia; NCI-H522 lung.
Holding throughout (test): DTP human tumour cell line panel, 48 h

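Method: 48-hour compound exposure of cells in 96-well plates, five concentrations, linear interpolation of endpoints. At the GI50, growth is halved. TGI: total growth inhibition.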

As a reminder, the TGI is the concentration at which net growth stops. Regarding `CC(C)(C)c1ccc2c(c1)S(=O)(=O)Nc1ccccc1NS(=O)(=O)c1cc(C(C)(C)C)ccc1OCCOCCOCCO2`, the TGI with SF-539 CNS was greater than 100 µM; in the assay with SN12C renal it was greater than 100 µM; in the assay with HOP-92 NSCLC it was greater than 100 µM; with MALME-3M melanoma, 97 µM; with OVCAR-3 ovarian, greater than 100 µM; with HCT-116 colon, greater than 100 µM. In addition, the concentration for total growth inhibition (TGI) in the assay with OVCAR-5 ovarian and in the assay on CCRF-CEM leukemia was greater than 100 µM each time.
Consider `Cc1ccn2c(c1)nc1nc3ccccc3nc12`, for which the total growth inhibition concentration (TGI) with SF-539 CNS, in the assay with SR leukemia, in the assay on HOP-92 NSCLC, in the assay on OVCAR-3 ovarian, in the assay on OVCAR-5 ovarian and in the assay on CCRF-CEM leukemia was greater than 100 µM throughout. In the assay with NCI-H522 lung, the TGI was greater than 100 µM.
One may read the GI50 as the concentration giving 50% growth inhibition. Turning to `COc1ccc(-c2n[nH]nc2-c2cc(OC)c(OC)c(OC)c2)cc1`, the GI50 was less than 0.01 µM in the assay with SN12C renal; less than 0.01 µM with SR leukemia; less than 0.0195 µM in the assay on HOP-92 NSCLC; less than 0.01 µM in the assay with OVCAR-3 ovarian; less than 0.01 µM in the assay with HCT-116 colon; less than 0.01 µM with OVCAR-5 ovarian. The concentration for 50% growth inhibition (GI50) with CCRF-CEM leukemia and in the assay on NCI-H522 lung was less than 0.01 µM each time. Moreover, the total growth inhibition concentration (TGI) in the assay with SN12C renal was greater than 100 µM; with SR leukemia, greater than 47.9 µM; with HOP-92 NSCLC it was 30.6 µM; in the assay on OVCAR-3 ovarian, less than 0.01 µM; in the assay on HCT-116 colon, greater than 100 µM; with OVCAR-5 ovarian, greater than 100 µM. Moreover, the total growth inhibition concentration (TGI) in the assay with CCRF-CEM leukemia was greater than 40.8 µM; in the assay with NCI-H522 lung it was less than 0.01 µM.
With `O=S(=O)(N=S(c1ccccc1)c1ccccc1)c1ccccc1`, the TGI with SF-539 CNS, in the assay on SN12C renal, in the assay with SR leukemia, in the assay on HOP-92 NSCLC, with MALME-3M melanoma and with OVCAR-3 ovarian was greater than 100 µM each time. Also, the total growth inhibition concentration (TGI) with HCT-116 colon, with OVCAR-5 ovarian and with CCRF-CEM leukemia was greater than 100 µM throughout.
For the compound `N#CCN1C(=O)c2cccc3cc([N+](=O)[O-])cc(c23)C1=O`, the TGI in the assay on SF-539 CNS is greater than 100 µM; in the assay on SN12C renal, greater than 100 µM; with SR leukemia, 41.8 µM; in the assay on HOP-92 NSCLC, greater than 100 µM; with MALME-3M melanoma it was 92.7 µM; in the assay on OVCAR-3 ovarian, 88.6 µM. Besides, the concentration for total growth inhibition (TGI) in the assay on HCT-116 colon, in the assay with OVCAR-5 ovarian and in the assay with CCRF-CEM leukemia was greater than 100 µM in each case.
On to `Cc1cc(Cl)ccc1N=C1NC(=O)C(CC(=O)Nc2ccc([N+](=O)[O-])cc2[N+](=O)[O-])S1` (stereo not drawn), for which the total growth inhibition concentration (TGI) is 59.1 µM in the assay with SF-539 CNS; 90.7 µM in the assay on SN12C renal; 73.2 µM in the assay on MALME-3M melanoma; 73.8 µM in the assay with OVCAR-3 ovarian; 86.8 µM in the assay with OVCAR-5 ovarian; greater than 100 µM with CCRF-CEM leukemia.
Take `Cc1cccc(N2CCN(C(=S)c3ccc4c(c3)OCO4)CC2)c1`: the GI50 in the assay on SF-539 CNS was 1.5 µM; in the assay on SR leukemia it was 0.557 µM; in the assay with HOP-92 NSCLC, 24.6 µM; with OVCAR-3 ovarian it was 0.359 µM; in the assay on HCT-116 colon, 0.513 µM; in the assay with OVCAR-5 ovarian, 5.41 µM. Moreover, the GI50 with CCRF-CEM leukemia was 6.91 µM. In addition, the TGI in the assay on SF-539 CNS is greater than 100 µM; with SR leukemia, greater than 100 µM; with HOP-92 NSCLC it was greater than 100 µM; in the assay on OVCAR-3 ovarian, 2.87 µM; in the assay with HCT-116 colon it was greater than 100 µM; in the assay on OVCAR-5 ovarian, greater than 100 µM. In the assay with CCRF-CEM leukemia, this compound showed a TGI greater than 100 µM.
`Cc1cc(S(=O)(=O)Nc2nnc(-c3ccccc3)c(-c3ccccc3)n2)c(SCC(N)=O)cc1Cl`: the GI50 in the assay on SF-539 CNS is 0.671 µM; in the assay with SN12C renal, 62.3 µM; with SR leukemia, 24.1 µM; with MALME-3M melanoma, 30.2 µM; in the assay on OVCAR-3 ovarian it was 19.6 µM; in the assay with HCT-116 colon it was 20.7 µM. Further, the GI50 with OVCAR-5 ovarian is greater than 100 µM; with CCRF-CEM leukemia it was 29.3 µM; in the assay with NCI-H522 lung, 22.9 µM. Moreover, the total growth inhibition concentration (TGI) in the assay with SF-539 CNS is 30.1 µM; with SN12C renal it was greater than 100 µM; with SR leukemia, 47.6 µM; in the assay on MALME-3M melanoma it was greater than 100 µM; in the assay with OVCAR-3 ovarian, 42.8 µM; in the assay with HCT-116 colon it was 37.8 µM. Also, the TGI is greater than 100 µM in the assay with OVCAR-5 ovarian, 77.4 µM in the assay with CCRF-CEM leukemia and 50.9 µM in the assay on NCI-H522 lung.
`COc1cc2ncnc(Nc3ccc(C)c(O)c3)c2cc1OC`: the GI50 is 5.98 µM in the assay on SF-539 CNS; 6.46 µM in the assay with SN12C renal; greater than 25 µM in the assay with SR leukemia; greater than 25 µM in the assay on MALME-3M melanoma; 8.94 µM in the assay on OVCAR-3 ovarian; greater than 25 µM in the assay with HCT-116 colon. The GI50 with OVCAR-5 ovarian is 16.2 µM; in the assay with CCRF-CEM leukemia it was greater than 25 µM; in the assay with NCI-H522 lung, 2.83 µM. Further, the total growth inhibition concentration (TGI) with SF-539 CNS was greater than 23 µM; in the assay with SN12C renal, greater than 25 µM; with SR leukemia, greater than 25 µM; with MALME-3M melanoma it was greater than 25 µM; in the assay with OVCAR-3 ovarian, greater than 25 µM; in the assay on HCT-116 colon it was greater than 25 µM. For the same compound, the concentration for total growth inhibition (TGI) in the assay on OVCAR-5 ovarian is greater than 25 µM; in the assay on CCRF-CEM leukemia, greater than 25 µM; in the assay with NCI-H522 lung, greater than 18.6 µM.
As to `Cc1cccc(NC(=O)C(=O)C(C(=O)c2ccc3ccccc3c2)C2OC(=O)c3ccccc32)c1C` (stereo not drawn), the TGI stood at 22.3 µM in the assay on SF-539 CNS; 40.4 µM with SN12C renal; 36.8 µM in the assay with HOP-92 NSCLC; 21.7 µM in the assay with MALME-3M melanoma; 50.1 µM in the assay on OVCAR-3 ovarian; 22.2 µM in the assay on HCT-116 colon. Moreover, the values for the total growth inhibition concentration (TGI) in the assay with OVCAR-5 ovarian, with CCRF-CEM leukemia and in the assay with NCI-H522 lung were 54.7 µM, 68.8 µM and 43.5 µM, respectively.
For `Clc1ccc(C2=Nn3c(COc4ccccc4Cl)nnc3SC2)c(Cl)c1`, the GI50 with HOP-92 NSCLC is 39 µM; in the assay with MALME-3M melanoma it was 20.3 µM; in the assay on OVCAR-3 ovarian it was 12.9 µM; in the assay on HCT-116 colon, 14.7 µM; with OVCAR-5 ovarian, 35.1 µM; in the assay with CCRF-CEM leukemia it was 30.6 µM. Further, the GI50 with NCI-H522 lung is 22.6 µM. The TGI in the assay on HOP-92 NSCLC is greater than 100 µM; with MALME-3M melanoma it was 70.6 µM; in the assay with OVCAR-3 ovarian, 29.2 µM; with HCT-116 colon it was 27.9 µM; in the assay with OVCAR-5 ovarian it was 87.1 µM; with CCRF-CEM leukemia, greater than 100 µM. The compound also came in with a TGI with NCI-H522 lung of 80.3 µM.
